# In patent publication US9593108B2, “Compounds and methods for antiviral treatment” (PTC Therapeutics, Inc., priority 2009, dated 2017):
# How the values were obtained:
# [1] = test system: HCV replicon RNA (GenBank Accession No. AJ242654); assay: HCV Replicon Assay (replicon RNA reduction and/or Fluc reporter signal); assay type: cell-based, Hepatitis C virus; details: Hepatitis C virus, 72 h, replicon-containing cells cultured with test compound for up to 3 days
# Outline: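 IC50 values mostly reflect the drop in replicon RNA, though Fluc reporter signal may also be used. Compound incubated with cells carrying the bicistronic replicon for as long as 3 days; interferon served as positive control.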
SMILES,melting point [°C],IC50 [1] [nM]
"CCc1cnc2c(c1)c(C#N)c(-c1ccc(S(=O)(=O)N[C@@H](C)C(F)(F)F)cn1)n2-c1ccc(F)cn1 [Cpd 474, 6-[3-cyano-5-ethyl-1-(5-fluoropyridin-2-yl)-1H-pyrrolo[2,3-b]pyridin-2-yl]-N-[(2S)-1,1,1-trifluoropropan-2-yl]pyridine-3-sulfonamide]",175 to 177,< 500
"Cc1cnc2c(C#N)c(-c3ccc(S(=O)(=O)N[C@@H](C)C(F)(F)F)cn3)n(-c3ncccn3)c2c1 [Cpd 475, 6-[3-cyano-6-methyl-1-(pyrimidin-2-yl)-1H-pyrrolo[3,2-b]pyridin-2-yl]-N-[(2S)-1,1,1-trifluoropropan-2-yl]pyridine-3-sulfonamide]",226 to 228,< 500
"Cc1cnc2c(C#N)c(-c3ccc(S(=O)(=O)N[C@@H](C)C(F)(F)F)cn3)n(-c3ccccc3)c2c1 [Cpd 476, 6-(3-cyano-6-methyl-1-phenyl-1H-pyrrolo[3,2-b]pyridin-2-yl)-N-[(2S)-1,1,1-trifluoropropan-2-yl]pyridine-3-sulfonamide]",245 to 247,< 500
"Cc1cnc2c(C#N)c(-c3ccc(S(=O)(=O)N[C@@H](C)C(F)(F)F)cn3)n(-c3nccs3)c2c1 [Cpd 477, 6-[3-cyano-6-methyl-1-(1,3-thiazol-2-yl)-1H-pyrrolo[3,2-b]pyridin-2-yl]-N-[(2S)-1,1,1-trifluoropropan-2-yl]pyridine-3-sulfonamide]",230 to 232,< 500
"Cc1cnc2c(C#N)c(-c3ccc(S(=O)(=O)N[C@@H](C)C(F)(F)F)cn3)n(-c3cncs3)c2c1 [Cpd 478, 6-[3-cyano-6-methyl-1-(1,3-thiazol-5-yl)-1H-pyrrolo[3,2-b]pyridin-2-yl]-N-[(2S)-1,1,1-trifluoropropan-2-yl]pyridine-3-sulfonamide]",273 to 275,500 to 2000
"Cc1cnc2c(C#N)c(-c3ccc(S(=O)(=O)N[C@@H](C)C(F)(F)F)cn3)n(-c3cc(C(F)(F)F)ccn3)c2c1 [Cpd 479, 6-{3-cyano-6-methyl-1-[4-(trifluoromethyl)pyridin-2-yl]-1H-pyrrolo[3,2-b]pyridin-2-yl}-N-[(2S)-1,1,1-trifluoropropan-2-yl]pyridine-3-sulfonamide]",245 to 246,500 to 2000
"Cc1cnc2c(C#N)c(-c3ccc(S(=O)(=O)N[C@@H](C)C(F)(F)F)cn3)n(-c3ccnnc3)c2c1 [Cpd 480, 6-[3-cyano-6-methyl-1-(pyridazin-4-yl)-1H-pyrrolo[3,2-b]pyridin-2-yl]-N-[(2S)-1,1,1-trifluoropropan-2-yl]pyridine-3-sulfonamide]",283 to 285,2000 to 5000
"Cc1cnc2c(C#N)c(-c3ccc(S(=O)(=O)N[C@@H](C)C(F)(F)F)cn3)n(-c3ccncn3)c2c1 [Cpd 481, 6-[3-cyano-6-methyl-1-(pyrimidin-4-yl)-1H-pyrrolo[3,2-b]pyridin-2-yl]-N-[(2S)-1,1,1-trifluoropropan-2-yl]pyridine-3-sulfonamide]",265 to 267,< 500
"Cc1cnc2c(C#N)c(-c3ccc(S(=O)(=O)N[C@@H](C)C(F)(F)F)cn3)n(-c3ccncc3)c2c1 [Cpd 482, 6-[3-cyano-6-methyl-1-(pyridin-4-yl)-1H-pyrrolo[3,2-b]pyridin-2-yl]-N-[(2S)-1,1,1-trifluoropropan-2-yl]pyridine-3-sulfonamide]",303 to 305,< 500
"Cc1cnc2c(c1)c(C#N)c(-c1ccc(S(=O)(=O)N[C@@H](C)C(F)(F)F)cc1)n2C [Cpd 483, 4-(3-cyano-1,5-dimethyl-1H-pyrrolo[2,3-b]pyridin-2-yl)-N-[(2S)-1,1,1-trifluoropropan-2-yl]benzenesulfonamide]",165 to 170,500 to 2000
"CCn1c(-c2ccc(S(=O)(=O)N[C@@H](C)C(F)(F)F)cc2)c(C#N)c2cc(C)cnc21 [Cpd 484, 4-(3-cyano-1-ethyl-5-methyl-1H-pyrrolo[2,3-b]pyridin-2-yl)-N-[(2S)-1,1,1-trifluoropropan-2-yl]benzenesulfonamide]",147 to 152,500 to 2000
